The results in this text go back to ChEMBL document CHEMBL1144627, “N-(3-(4-Hydroxyphenyl)-propenoyl)-amino acid tryptamides as SIRT2 inhibitors” (Bioorg Med Chem Lett, 2007).

Assay [1] addresses T1, NAD-dependent protein deacetylase sirtuin-1 (Homo sapiens) (UniProt Q96EB6).
T1 sequence (whole entry): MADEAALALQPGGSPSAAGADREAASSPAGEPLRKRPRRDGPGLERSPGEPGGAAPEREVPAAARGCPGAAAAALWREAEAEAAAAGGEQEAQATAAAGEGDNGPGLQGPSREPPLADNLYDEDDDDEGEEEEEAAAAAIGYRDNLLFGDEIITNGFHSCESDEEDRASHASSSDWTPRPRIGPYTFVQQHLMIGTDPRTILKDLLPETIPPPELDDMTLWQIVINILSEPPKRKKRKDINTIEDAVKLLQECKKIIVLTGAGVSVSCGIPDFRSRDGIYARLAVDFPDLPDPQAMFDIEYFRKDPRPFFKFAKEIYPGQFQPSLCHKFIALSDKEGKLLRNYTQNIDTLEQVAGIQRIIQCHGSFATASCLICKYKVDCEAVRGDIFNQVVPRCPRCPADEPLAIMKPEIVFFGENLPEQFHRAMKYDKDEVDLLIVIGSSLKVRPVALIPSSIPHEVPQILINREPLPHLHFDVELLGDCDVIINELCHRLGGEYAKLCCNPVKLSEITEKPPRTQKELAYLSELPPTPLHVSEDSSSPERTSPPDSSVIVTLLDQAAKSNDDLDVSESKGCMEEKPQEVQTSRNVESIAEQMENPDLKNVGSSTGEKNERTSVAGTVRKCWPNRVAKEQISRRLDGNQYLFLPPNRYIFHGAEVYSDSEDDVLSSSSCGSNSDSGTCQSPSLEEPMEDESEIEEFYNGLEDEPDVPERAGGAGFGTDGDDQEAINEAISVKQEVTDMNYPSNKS
Briefly: Inhibition of SIRT1 at 200 uM.

The target in assay [2] is T2, NAD-dependent protein deacetylase sirtuin-2 (Homo sapiens) (UniProt Q8IXJ6).
T2 sequence (whole entry): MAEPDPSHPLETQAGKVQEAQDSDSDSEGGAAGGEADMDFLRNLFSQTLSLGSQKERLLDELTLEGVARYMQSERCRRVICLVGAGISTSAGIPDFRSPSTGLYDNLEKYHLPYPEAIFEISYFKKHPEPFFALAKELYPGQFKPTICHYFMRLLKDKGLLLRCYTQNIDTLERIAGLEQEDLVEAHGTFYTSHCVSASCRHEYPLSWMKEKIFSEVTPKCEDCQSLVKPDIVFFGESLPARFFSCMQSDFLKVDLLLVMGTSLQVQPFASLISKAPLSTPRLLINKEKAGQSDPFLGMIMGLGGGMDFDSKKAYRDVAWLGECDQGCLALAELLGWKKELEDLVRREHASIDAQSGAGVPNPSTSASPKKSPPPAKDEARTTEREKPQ
Briefly: Inhibition of SIRT2 at 200 uM.

The target of assay [3] is T3, NAD-dependent protein deacetylase sirtuin-2 (Homo sapiens, UniProt Q8IXJ6).
T3 sequence (Q8IXJ6 whole entry): T2 sequence (whole entry)
Briefly: Inhibition of SIRT2.

Assay [4] concerns the target T4, NAD-dependent protein deacetylase sirtuin-1 (Homo sapiens, UniProt Q96EB6).
T4 sequence (Q96EB6 whole entry): T1 sequence (whole entry)
Briefly: Inhibition of SIRT1.

pIC50: −log10 of the molar value.

A word on the inhibition: it is the change of the read-out against control, counted positive when it falls. Read a low inhibition as a response near the control. Broadly, the pIC50 is the negative decadic logarithm of the IC50, by convention in mol/L.

As for `CC(C)(NC(=O)/C=C/c1ccc(OCc2ccccc2)cc1)C(=O)NCCc1c[nH]c2ccccc12`, the results for the inhibition in assay [1] and in assay [2] were 10.2% and 32.6%, respectively.
For `C[C@@H](NC(=O)/C=C/c1ccc(O)cc1)C(=O)NCCc1c[nH]c2ccccc12` the same measures were 3.2% and 8.5%.
For `CC(C)(NC(=O)/C=C/c1ccc(O)cc1)C(=O)NCCc1c[nH]c2ccc(F)cc12`, the inhibition in assay [1] was determined as 7%; in assay [2] it was 67.5%. For the same molecule, the pIC50 in assay [3] was 4.10.
Taken in the same sequence, the figures for `COc1ccc(/C=C/C(=O)NC(C)(C)C(=O)NCCc2c[nH]c3ccccc23)cc1` were 10.3%, 55.4% and 4.00.
Consider `C[C@H](NC(=O)/C=C/c1ccc(O)cc1)C(=O)NCCc1c[nH]c2ccccc12`, for which the inhibition in assay [1] was 17.7%; in assay [2] it was 88.6%. Besides, the negative-log IC50 (pIC50) in assay [3] was 4.33.
In assay [4], `O=C(/C=C/c1ccc(OCc2ccc(F)cc2)cc1)NC1(C(=O)NCCc2c[nH]c3ccc(F)cc23)CCNCC1` showed a pIC50 of 4.14. The molecule further gave an inhibition in assay [1] of 94.1%.
Regarding `O=C(/C=C/c1ccc(OCc2ccccc2)cc1)NC1(C(=O)NCCc2c[nH]c3ccccc23)CCNCC1`, the pIC50 is 4.28 in assay [4] and 4.20 in assay [3]. Besides, the results for the inhibition in assay [1] and in assay [2] were 97% and 79.1%, respectively.
In the case of `NC(=O)C1CCCc2c1[nH]c1ccc(Cl)cc21` (stereo unspecified), the inhibition was determined as 98.9% in assay [1] and 89.4% in assay [2].
As to `O=C(/C=C/c1ccc(O)cc1)NCC(=O)NCCc1c[nH]c2ccccc12`, the inhibition worked out at 9.9% in assay [1] and 44.3% in assay [2].
As for `CC(C)(NC(=O)/C=C/c1ccc(O)cc1)C(=O)NCCc1c[nH]c2ccccc12`, the inhibition in assay [1] was determined as 6.6%; in assay [2], 83.3%. The molecule further showed a pIC50 in assay [3] of 4.30.
